Measured values from patent US20090143279A1 (priority 2007, published 2009).
Read-outs that look alike come from different tables or passages of the source. Where a SMILES comes first, the peptide text is derived from it.

Assays:
cytochrome c = format: cell-based, mouse; settings: for cyt c (composite Z-score): normalized score vs mock-treated (DMSO) wells
[1] = tested on: mitochondrial membrane potential; format: cell-based, mouse; settings: for ΔΨm (composite Z-score): normalized score vs mock-treated (DMSO) wells
[2] = tested on: cellular dehydrogenase activity; settings: for MTT (composite Z-score): normalized score vs mock-treated (DMSO) wells
reactive oxygen species = format: cell-based, mouse; settings: for ROS (composite Z-score): normalized score vs mock-treated (DMSO) wells
OXPHOS gene expression = format: cell-based, mouse; settings: for GE-HTS (composite Z-score): normalized score vs mock-treated (DMSO) wells
C2C12 myotubes = settings: for Viability (composite Z-score): normalized score vs mock-treated (DMSO) wells
mtOXPHOS transcripts = format: cell-based, mouse; settings: for mitoOX (composite Z-score): normalized score vs mock-treated (DMSO) wells
nuOXPHOS transcripts = format: cell-based, mouse; settings: for nucOX (composite Z-score): normalized score vs mock-treated (DMSO) wells
[3] = composite Z-score vs DMSO, Conc 8.66 μM
[4] = composite Z-score vs DMSO, Conc 20 μM
[5] = normalized composite Z-score vs mock-treated (DMSO) wells, Conc 20 μM
[6] = 20 μM, composite Z-score vs DMSO
[7] = composite Z-score vs mock-treated (DMSO) wells, concentration of each compound in μM
[8] = composite Z-score vs mock-treated (DMSO) wells, Conc 20 μM
[9] = Table 7, C2C12 myotubes, 48 h, composite Z-score
[10] = 8.76 μM, composite Z-score vs DMSO
[11] = composite Z-score vs DMSO wells, Conc 20 μM

O=c1[nH]c2ccccc2n1C1CCN(CCCC(c2ccc(F)cc2)c2ccc(F)cc2)CC1 [pimozide]
cyt c (cytochrome c; [3]): −0.531 | cyt c (cytochrome c; [4]): −0.121 | ΔΨm [1, 3]: −0.170 | ΔΨm [1, 4]: −0.381 | MTT [2, 3]: −0.375 | MTT [2, 4]: −0.447 | ROS (reactive oxygen species; [3]): 2.196 | ROS (reactive oxygen species; [4]): 1.432 | GE-HTS (OXPHOS gene expression; [3]): −0.548 | GE-HTS (OXPHOS gene expression; [4]): 0.722 | Viability (C2C12 myotubes; [3]): 0.494 | Viability (C2C12 myotubes; [4]): 0.146 | mitoOX (mtOXPHOS transcripts; [3]): −0.648 | mitoOX (mtOXPHOS transcripts; [4]): 0.386 | nucOX (nuOXPHOS transcripts; [3]): −0.438 | nucOX (nuOXPHOS transcripts; [4]): 0.857

CC(=O)O[C@@H]1CC2C(C)(CC[C@H](O)C2(C)C)C2CC[C@]3(C)C(=CC(=O)O[C@H]3c3ccoc3)C21C (stereo partly drawn) [3beta-hydroxydeoxodihydrodeoxygedunin]
cyt c (composite Z-score) (cytochrome c; Conc 20 μM): 0.142 | ΔΨm (composite Z-score) ([1]; Conc 20 μM): 1.048 | MTT (composite Z-score) ([2]; Conc 20 μM): −0.656 | ROS (composite Z-score) (reactive oxygen species; Conc 20 μM): 1.488 | GE-HTS (composite Z-score) (OXPHOS gene expression; Conc 20 μM): −0.747 | Viability (composite Z-score) (C2C12 myotubes; Conc 20 μM): −1.397 | mitoOX (composite Z-score) (mtOXPHOS transcripts; Conc 20 μM): −0.359 | nucOX (composite Z-score) (nuOXPHOS transcripts; Conc 20 μM): −0.849

COc1cc2c(c(OC)c1OC)-c1ccc(=O)c(O)cc1[C@@H](NC(C)=O)CC2 [colchiceine]
cyt c (cytochrome c; [4]): −0.908 | ΔΨm [1, 4]: −0.812 | MTT [2, 4]: −3.186 | ROS (reactive oxygen species; [4]): 0.469 | GE-HTS (OXPHOS gene expression; [4]): 1.832 | Viability (C2C12 myotubes; [4]): −0.333 | mitoOX (mtOXPHOS transcripts; [4]): 1.192 | nucOX (nuOXPHOS transcripts; [4]): 1.935

COC(=O)C[C@H]1C(C)(C)C2(O)OC34CC2C(=O)[C@]1(C)C3CC[C@]1(C)C4=CC(=O)O[C@H]1c1ccoc1 (stereo partly drawn) [8beta-hydroxycarapin, 3,8-hemiacetal]
cyt c (composite Z-score) (cytochrome c; Conc 20 μM): 0.436 | ΔΨm (composite Z-score) ([1]; Conc 20 μM): −0.251 | MTT (composite Z-score) ([2]; Conc 20 μM): 0.204 | ROS (composite Z-score) (reactive oxygen species; Conc 20 μM): 1.075 | GE-HTS (composite Z-score) (OXPHOS gene expression; Conc 20 μM): 0.600 | Viability (composite Z-score) (C2C12 myotubes; Conc 20 μM): 0.561 | mitoOX (composite Z-score) (mtOXPHOS transcripts; Conc 20 μM): 0.789 | nucOX (composite Z-score) (nuOXPHOS transcripts; Conc 20 μM): 0.472

CC(C)=CC1C(CO)C1(C)C (centres unmarked) [chrysanthemyl alcohol]
cyt c (cytochrome c; [5]): 0.264 | ΔΨm [1, 5]: −0.734 | MTT [2, 5]: −0.004 | ROS (reactive oxygen species; [5]): 0.345 | GE-HTS (OXPHOS gene expression; [5]): 0.456 | Viability (C2C12 myotubes; [5]): 0.604 | mitoOX (mtOXPHOS transcripts; [5]): 0.331 | nucOX (nuOXPHOS transcripts; [5]): 0.495

Clc1ccc(C(c2ccccc2Cl)C(Cl)Cl)cc1 (centres unmarked) [mitotane]
cyt c (cytochrome c; [6]): −0.216 | ΔΨm [1, 6]: −0.542 | MTT [2, 6]: −1.708 | ROS (reactive oxygen species; [6]): 0.460 | GE-HTS (OXPHOS gene expression; [6]): −0.030 | Viability (C2C12 myotubes; [6]): −1.631 | mitoOX (mtOXPHOS transcripts; [6]): −0.244 | nucOX (nuOXPHOS transcripts; [6]): 0.072

CN[C@H]1C[C@@H](N)[C@H](O)[C@@H](O[C@@H]2O[C@H](CO)[C@H](O)[C@@H]3OC4(O[C@H]23)O[C@H]([C@@H](N)CO)[C@H](O)[C@H](O)[C@H]4O)[C@@H]1O (some centres unmarked) [hygromycin B]
cyt c (cytochrome c; [7]): −0.478 | ΔΨm [1, 7]: −0.752 | MTT [2, 7]: −2.041 | ROS (reactive oxygen species; [7]): 0.707 | GE-HTS (OXPHOS gene expression; [7]): 0.558 | Viability (C2C12 myotubes; [7]): −1.526 | mitoOX (mtOXPHOS transcripts; [7]): −0.054 | nucOX (nuOXPHOS transcripts; [7]): 0.800

Oc1c(Br)cc(Br)c2cccnc12 [broxyquinoline]
cyt c (cytochrome c; [6]): 0.410 | ΔΨm [1, 6]: 1.701 | MTT [2, 6]: −1.180 | ROS (reactive oxygen species; [6]): −1.081 | GE-HTS (OXPHOS gene expression; [6]): −0.830 | Viability (C2C12 myotubes; [6]): −2.006 | mitoOX (mtOXPHOS transcripts; [6]): −0.157 | nucOX (nuOXPHOS transcripts; [6]): −1.095

COC(=O)[C@@H]1OC(=O)[C@H]2O[C@@]23[C@@]1(C)CCC1[C@@]2(C)CCC(=O)C(C)(C)C2C[C@@H](OC(C)=O)[C@]13C (some centres unmarked) [dihydrogeduninic acid, methyl ester]
cyt c (composite Z-score) (cytochrome c; Conc 20 μM): 0.117 | ΔΨm (composite Z-score) ([1]; Conc 20 μM): −0.571 | MTT (composite Z-score) ([2]; Conc 20 μM): −1.004 | ROS (composite Z-score) (reactive oxygen species; Conc 20 μM): 0.820 | GE-HTS (composite Z-score) (OXPHOS gene expression; Conc 20 μM): 0.739 | Viability (composite Z-score) (C2C12 myotubes; Conc 20 μM): 0.488 | mitoOX (composite Z-score) (mtOXPHOS transcripts; Conc 20 μM): 0.289 | nucOX (composite Z-score) (nuOXPHOS transcripts; Conc 20 μM): 0.881

O=C(O[C@@H]1Cc2c(O)cc(O)cc2O[C@@H]1c1cc(O)c(O)c(O)c1-c1c([C@H]2Oc3cc(O)cc(O)c3C[C@H]2O)cc(O)c(O)c1O)c1cc(O)c(O)c(O)c1 [2′,2′-bisepigallocatechin monogallate]
cyt c (composite Z-score) (cytochrome c; Conc 20 μM): 0.246 | ΔΨm (composite Z-score) ([1]; Conc 20 μM): −2.350 | MTT (composite Z-score) ([2]; Conc 20 μM): −1.318 | ROS (composite Z-score) (reactive oxygen species; Conc 20 μM): 0.428 | GE-HTS (composite Z-score) (OXPHOS gene expression; Conc 20 μM): −0.573 | Viability (composite Z-score) (C2C12 myotubes; Conc 20 μM): 0.442 | mitoOX (composite Z-score) (mtOXPHOS transcripts; Conc 20 μM): −0.575 | nucOX (composite Z-score) (nuOXPHOS transcripts; Conc 20 μM): −0.545

C=C[C@H]1C[N@@]2CC[C@H]1C[C@@H]2[C@@H](O)c1ccnc2ccc(OC)cc12 [quinidine]
cyt c (cytochrome c; [4]): 1.286 | ΔΨm [1, 4]: 1.187 | MTT [2, 4]: −0.233 | ROS (reactive oxygen species; [4]): 1.326 | GE-HTS (OXPHOS gene expression; [4]): 0.849 | Viability (C2C12 myotubes; [4]): 0.916 | mitoOX (mtOXPHOS transcripts; [4]): 0.501 | nucOX (nuOXPHOS transcripts; [4]): 0.956

C=CC(C1=CC(=O)C(OC)=CC1=O)c1ccc(OC)cc1 (centres unmarked) [4,4′-dimethoxydalbergione]
cyt c (cytochrome c; [8]): −1.432 | ΔΨm [1, 8]: −0.993 | MTT [2, 8]: −2.648 | ROS (reactive oxygen species; [8]): −0.802 | GE-HTS (OXPHOS gene expression; [8]): −0.842 | Viability (C2C12 myotubes; [8]): −0.207 | mitoOX (mtOXPHOS transcripts; [8]): −0.975 | nucOX (nuOXPHOS transcripts; [8]): −0.677

CC(C)C[C@H](N)C(=O)N[C@@H](C)C(=O)O [L-leucyl-L-alanine] (H-Leu-Ala-OH)
cyt c (cytochrome c; [4]): −0.861 | ΔΨm [1, 4]: −0.307 | MTT [2, 4]: −0.320 | ROS (reactive oxygen species; [4]): 0.301 | GE-HTS (OXPHOS gene expression; [4]): 0.365 | Viability (C2C12 myotubes; [4]): −0.600 | mitoOX (mtOXPHOS transcripts; [4]): 0.093 | nucOX (nuOXPHOS transcripts; [4]): 0.465

COc1ccc2c(=O)c(CC(=O)O)coc2c1 [anhydrobrazilic acid, reference compound]
cyt c (cytochrome c; [5]): 0.579 | ΔΨm [1, 5]: −0.353 | MTT [2, 5]: −1.007 | ROS (reactive oxygen species; [5]): 0.388 | GE-HTS (OXPHOS gene expression; [5]): 1.730 | Viability (C2C12 myotubes; [5]): −0.072 | mito-OXPHOS Z (mtOXPHOS transcripts; [9]): 1.68 | mitoOX (mtOXPHOS transcripts; [5]): 1.678 | nucOXPHOS Z (nuOXPHOS transcripts; [9]): 1.56 | nucOX (nuOXPHOS transcripts; [5]): 1.559

Cc1cc(N)c2ccccc2[n+]1CCCCCCCCCC[n+]1c(C)cc(N)c2ccccc21 [dequalinium]
cyt c (cytochrome c; [10]): −4.108 | cyt c (cytochrome c; [6]): −3.241 | ΔΨm [1, 10]: −3.242 | ΔΨm [1, 6]: −2.506 | MTT [2, 10]: −5.151 | MTT [2, 6]: −4.446 | ROS (reactive oxygen species; [10]): −3.041 | ROS (reactive oxygen species; [6]): −3.055 | GE-HTS (OXPHOS gene expression; [10]): −1.322 | GE-HTS (OXPHOS gene expression; [6]): −1.733 | Viability (C2C12 myotubes; [10]): −3.696 | Viability (C2C12 myotubes; [6]): −3.176 | mitoOX (mtOXPHOS transcripts; [10]): −2.024 | mitoOX (mtOXPHOS transcripts; [6]): −2.705 | nucOX (nuOXPHOS transcripts; [10]): −0.852 | nucOX (nuOXPHOS transcripts; [6]): −1.087

NS(=O)(=O)c1cc2c(cc1Cl)N=CNS2(=O)=O [chlorothiazide]
cyt c (cytochrome c): 0.431 | cyt c (cytochrome c; [11]): 0.566 | ΔΨm [1, 11]: −0.831 | MTT [2, 11]: −0.711 | ROS (reactive oxygen species; [11]): 1.202 | GE-HTS (OXPHOS gene expression; [11]): −0.331 | Viability (C2C12 myotubes; [11]): 0.116 | mitoOX (mtOXPHOS transcripts; [11]): 0.221 | nucOX (nuOXPHOS transcripts; [11]): −0.608

NC(=O)c1ccc([N+](=O)[O-])cc1Cl [aklomide]
cyt c (cytochrome c; [11]): 0.510 | ΔΨm [1, 11]: −0.447 | MTT [2, 11]: 1.426 | ROS (reactive oxygen species; [11]): 0.061 | GE-HTS (OXPHOS gene expression; [11]): 0.378 | Viability (C2C12 myotubes; [11]): 0.408 | mitoOX (mtOXPHOS transcripts; [11]): −0.136 | nucOX (nuOXPHOS transcripts; [11]): 0.594
